Experiment: method code SF-AS, from PMID: 2985094
Settings: pH 7.4

| logD | Structure (SMILES) |
| --- | --- |
| -0.57 | C=CCn1cnc2c(=N)n(C)c(=O)[nH]c21 |
| -1.52 | COCCOCn1cnc2c(=N)n(C)c(=O)[nH]c21 |
| 0.07 | Cn1c(N)c2c(ncn2Cc2ccccc2)nc1=O |
| 0.65 | Cn1c(N)c2ncn(Cc3ccccc3)c2nc1=O |
| -0.96 | COCCn1cnc2c(N)n(C)c(=O)nc21 |
| -0.13 | CCSCCn1cnc2[nH]c(=O)n(C)c(=N)c21 |
| 0 | CCSCCn1cnc2c(=N)n(C)c(=O)[nH]c21 |
| -0.78 | C=COCCn1cnc2[nH]c(=O)n(C)c(=N)c21 |
| -0.4 | CCOCCn1cnc2c(N)n(C)c(=O)nc21 |
| 1.25 | Cn1c(=O)[nH]c2ncn(CCc3ccc(Br)cc3)c2c1=N |
| -0.24 | C=COCCn1cnc2c(=N)n(C)c(=O)[nH]c21 |
| -2.41 | COCn1cnc2nc(=O)n(C)c(N)c21 |
| -2.27 | Cn1c(=O)[nH]c2ncn(C)c2c1=N |
| -1.49 | COCCn1cnc2nc(=O)n(C)c(N)c21 |
| -1.04 | Cn1c(=O)[nH]c2ncn(CCCC(=O)c3ccc(F)cc3)c2c1=N |
| -1.22 | COCn1cnc2c(=N)n(C)c(=O)[nH]c21 |
| -1.2 | CC(=O)OCCn1cnc2[nH]c(=O)n(C)c(=N)c21 |
| -1.1 | CCOCCn1cnc2[nH]c(=O)n(C)c(=N)c21 |
| 0.44 | Cn1c(=O)[nH]c2c(ncn2CCCC(=O)c2ccc(F)cc2)c1=N |
| -0.45 | CCOC(=O)CCn1cnc2c(=N)n(C)c(=O)[nH]c21 |
| -2.41 | COCn1cnc2[nH]c(=O)n(C)c(=N)c21 |
